Laboratory results from publication PMC3830718 (Toxicology and applied pharmacology, 2013).
Read-outs that look alike come from different tables or passages of the source.

Legend:
[1] = type: in vivo, mice; conditions: mouse, kidney, intraperitoneal, 7.5 mg/kg, Metformin accumulation in the kidney
[2] = in vivo; conditions: mouse, AUC0–120min of metformin
[3] = molecular target: mouse Mate1 (mMate1) (Mus musculus, UniProt Q8K0H1); experiment: Inhibition of metformin accumulation in HEK-293 cells stably expressing mMate1; type: cell-based
Chain of mouse Mate1 (mMate1) (Q8K0H1 whole entry): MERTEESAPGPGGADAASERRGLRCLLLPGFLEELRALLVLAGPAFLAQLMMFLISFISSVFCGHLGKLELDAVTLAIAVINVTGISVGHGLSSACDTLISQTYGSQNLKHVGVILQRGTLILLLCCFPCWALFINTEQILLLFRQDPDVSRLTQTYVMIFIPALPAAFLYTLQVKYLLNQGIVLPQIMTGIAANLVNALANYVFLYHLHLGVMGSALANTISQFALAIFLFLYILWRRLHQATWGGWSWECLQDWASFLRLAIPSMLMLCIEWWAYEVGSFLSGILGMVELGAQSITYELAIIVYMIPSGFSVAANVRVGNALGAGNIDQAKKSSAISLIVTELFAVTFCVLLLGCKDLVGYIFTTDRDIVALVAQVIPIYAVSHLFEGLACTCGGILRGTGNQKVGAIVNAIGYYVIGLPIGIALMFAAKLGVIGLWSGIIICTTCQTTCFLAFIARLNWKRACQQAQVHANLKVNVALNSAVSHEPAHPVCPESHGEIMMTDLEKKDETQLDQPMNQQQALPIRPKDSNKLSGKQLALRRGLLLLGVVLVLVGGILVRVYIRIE

[4] = mouse, in vivo, 10 mg/kg
[5] = molecular target: T1, mouse Oct2 (mOct2) (Mus musculus, UniProt O70577); experiment: Inhibition of metformin accumulation in HEK-293 cells stably expressing mOct2; type: cell-based
T1 sequence (O70577 1-553): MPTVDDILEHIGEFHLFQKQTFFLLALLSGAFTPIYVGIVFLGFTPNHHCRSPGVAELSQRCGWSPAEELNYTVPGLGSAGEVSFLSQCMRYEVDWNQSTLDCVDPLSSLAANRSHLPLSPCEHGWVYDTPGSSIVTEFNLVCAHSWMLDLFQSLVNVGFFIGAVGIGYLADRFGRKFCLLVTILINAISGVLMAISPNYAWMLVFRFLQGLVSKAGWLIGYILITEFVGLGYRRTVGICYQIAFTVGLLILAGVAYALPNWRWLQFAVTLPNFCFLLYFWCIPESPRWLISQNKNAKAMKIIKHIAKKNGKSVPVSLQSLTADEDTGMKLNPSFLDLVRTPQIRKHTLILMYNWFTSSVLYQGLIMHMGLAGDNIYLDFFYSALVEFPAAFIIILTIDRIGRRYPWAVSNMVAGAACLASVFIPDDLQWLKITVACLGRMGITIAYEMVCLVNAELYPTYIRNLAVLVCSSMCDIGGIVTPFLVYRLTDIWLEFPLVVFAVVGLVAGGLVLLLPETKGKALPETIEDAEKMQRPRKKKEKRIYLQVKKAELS

| concentration at 30 min ([1]; Mate1−/− mice, saline (Fig. 4A)) [ng/g] | concentration at 30 min ([1]; wild-type mice, saline, genotype study (Fig. 4A)) [ng/g] | AUC(0-t) [2] [ng·h/mL] | Ki [3] [nM] | Effect on hepatic platinum accumulation [4] | Ki [5] [nM] | Structure (SMILES) |
| --- | --- | --- | --- | --- | --- | --- |
| 917 ± 89.6 | 114 ± 21.8 | 2030 | – | – | – | CN(C)C(=N)N=C(N)N [metformin] |
| – | – | – | 70 | did not observe a significant effect | 3500 | Cc1nccn1CC1CCc2c(c3ccccc3n2C)C1=O (stereo not drawn) [ondansetron] |
